Test results taken from the OPERA property sets (Mansouri et al. 2018).
Converted amounts (≈) assume the structure as drawn.

Row | Compound | solubility (25 °C) | other results
1 | Clc1cccc(-c2cccc(Cl)c2Cl)c1Cl | 5.34e-05 mM (≈ 0.0156 µg/mL) | 
2 | Fc1ccc(I)cc1 | 0.749 mM (≈ 166 µg/mL) | 
3 | Cc1cc(C)c2ccccc2n1 | 11.4 mM (≈ 1790 µg/mL) | 
4 | CC(C)(N)C(=O)O | 1760 mM (≈ 181000 µg/mL) | 
5 | C#CCCCCC | 0.977 mM (≈ 94 µg/mL) | 
6 | CCN(CC)CCOC(=O)c1ccc(N)cc1 |  | solubility (30 °C): 40 mM (≈ 9450 µg/mL)
7 | CCCCC(N)C(=O)O (racemic) | 88.5 mM (≈ 11600 µg/mL) | 
8 | CCc1ccc2ccccc2c1 | 0.0513 mM (≈ 8.01 µg/mL) | 
9 | ONc1ccccc1 | 259 mM (≈ 28300 µg/mL) | 
10 | CNC(=O)O/N=C1\[C@@H](Cl)[C@@H]2C[C@H](C#N)[C@H]1C2 |  | solubility: 8.28 mM (≈ 2000 µg/mL)
11 | CC(C)(S)[C@@H](N)C(=O)O |  | solubility (20 °C): 744 mM (≈ 111000 µg/mL)
12 | CCCCCCC | 0.0339 mM (≈ 3.4 µg/mL) | 
13 | C[C@H](O)C(=O)Nc1c(I)c(C(=O)NC(CO)CO)c(I)c(C(=O)NC(CO)CO)c1I |  | solubility (20 °C): 180 mM (≈ 140000 µg/mL)
14 | COP(=O)(Oc1ccccc1)Oc1ccccc1 | 7.57 mM (≈ 2000 µg/mL) | 
15 | NCCC(=O)O | 6120 mM (≈ 545000 µg/mL) | 
16 | O=C(O)C=Cc1ccco1 |  | solubility (20 °C): 14.5 mM (≈ 2000 µg/mL)
17 | Oc1c2ccccc2cc2ccccc12 | 0.0185 mM (≈ 3.59 µg/mL) | 
18 | C#CC(C)N(C)C(=O)Nc1ccc(Cl)cc1 (stereo not drawn) |  | solubility (20 °C): 0.127 mM (≈ 30 µg/mL)
19 | Fc1ccccc1CCl | 2.88 mM (≈ 416 µg/mL) | 
20 | Cc1cccc(Br)c1 |  | solubility: 0.3 mM (≈ 51.3 µg/mL)
21 | Nc1ccc(O)c2c1C(=O)c1ccccc1C2=O |  | solubility: 0.15 mM (≈ 35.9 µg/mL)
22 | O=C(O)c1cnc(O)nc1O |  | solubility (20 °C): 11.5 mM (≈ 1800 µg/mL)
23 | C1CCCCCC1 | 0.306 mM (≈ 30 µg/mL) | 
24 | COc1cnc(NS(=O)(=O)c2ccc(N)cc2)nc1 |  | solubility (30 °C): 2.6 mM (≈ 730 µg/mL)
25 | S=c1[nH]cnc2[nH]cnc12 |  | solubility: 450 mM (≈ 68500 µg/mL)
26 | CCCCCCCC(=O)OC |  | solubility (20 °C): 0.407 mM (≈ 64.4 µg/mL)

Row | Compound | solubility (25 °C) | other results
27 | O=C(O)c1ccc(F)cc1 | 8.56 mM (≈ 1200 µg/mL) | 
28 | O=C(O)CN(CP(=O)(O)O)CP(=O)(O)O |  | solubility (20 °C): 943 mM (≈ 248000 µg/mL)
29 | Clc1cc(Cl)c(-c2c(Cl)cc(Cl)c(Cl)c2Cl)cc1Cl |  | solubility (20 °C): 1.24e-05 mM (≈ 0.0049 µg/mL)
30 | CC1CCCCC1 | 0.152 mM (≈ 15 µg/mL) | 
31 | C[C@]12CC[C@H]3C(=CCc4cc(O)ccc43)[C@@H]1CCC2=O | 0.00525 mM (≈ 1.41 µg/mL) | 
32 | Cc1c2ccccc2cc2ccccc12 | 0.00136 mM (≈ 0.261 µg/mL) | 
33 | Cc1ccc(Cl)cc1 |  | solubility (20 °C): 0.837 mM (≈ 106 µg/mL)
34 | CCC1(CC)C(=O)NC(=O)N(C)C1=O | 9.99 mM (≈ 1980 µg/mL) | 
35 | OCc1ccccc1 | 370 mM (≈ 40000 µg/mL) | 
36 | Clc1c(Cl)c(Cl)c2c(c1Cl)Oc1c(Cl)c(Cl)c(Cl)c(Cl)c1O2 |  | solubility (20 °C): 8.7e-10 mM (≈ 4e-07 µg/mL)
37 | NC[C@H](O)c1ccccc1 |  | solubility (20 °C): 334 mM (≈ 45800 µg/mL)
38 | CCCN(CCC)C(=O)SCC | 1.98 mM (≈ 375 µg/mL) | 
39 | CCOC(=O)CC#N | 177 mM (≈ 20000 µg/mL) | 
40 | CC(C)CNC(=O)N1CCNC1=O |  | solubility (20 °C): 7.02 mM (≈ 1300 µg/mL)
41 | Oc1cccc2ncccc12 |  | solubility (20 °C): 2.87 mM (≈ 417 µg/mL)
42 | O=C(O)COc1c(Cl)ccc(Cl)c1Cl | 2.4 mM (≈ 613 µg/mL) | 
43 | CC(C)CC(=O)CC(C)C |  | solubility (24 °C): 18.6 mM (≈ 2640 µg/mL)
44 | CC(C)CCBr | 1.3 mM (≈ 196 µg/mL) | 
45 | CC(C)(C)CO | 397 mM (≈ 35000 µg/mL) | 
46 | O=C(O)CCI | 372 mM (≈ 74300 µg/mL) | 
47 | CCN(CC)N=O |  | solubility (24 °C): 1040 mM (≈ 106000 µg/mL)
48 | CCCCC1(CC)C(=O)NC(=O)NC1=O | 23 mM (≈ 4880 µg/mL) | 
49 | O=C1C=CC(=C(c2ccc(O)cc2)c2ccc(O)cc2)C=C1 |  | solubility: 4.13 mM (≈ 1200 µg/mL)
50 | CC(=O)OCC(=O)[C@@]1(O)CC[C@H]2[C@@H]3CCC4=CC(=O)CC[C@]4(C)[C@H]3C(=O)C[C@@]21C | 0.0497 mM (≈ 20 µg/mL) | 
51 | CC(C)C(C)C(C)C | 0.0201 mM (≈ 2.3 µg/mL) | 
52 | CCCCP(=O)(CCCC)CCCC | 255 mM (≈ 55700 µg/mL) | 

Row | Compound | solubility (25 °C) | other results
53 | CCC(Cl)[N+](=O)[O-] (stereo not drawn) |  | solubility (20 °C): 64.8 mM (≈ 8000 µg/mL)
54 | O=C1OCc2ccc([N+](=O)[O-])cc21 | 2.23 mM (≈ 400 µg/mL) | 
55 | Cc1ccc(N=C=S)cc1 | 0.019 mM (≈ 2.83 µg/mL) | 
56 | C[C@@H](CCl)[N+](=O)[O-] |  | solubility (20 °C): 64.8 mM (≈ 8000 µg/mL)
57 | CCOP(=S)(OCC)OP(=S)(OCC)OCC |  | solubility (20 °C): 0.0931 mM (≈ 30 µg/mL)
58 | ClCC1CO1 (stereo not drawn) | 712 mM (≈ 65900 µg/mL) | 
59 | FC1(F)C(F)(F)C(F)(F)C1(F)F | 0.165 mM (≈ 33 µg/mL) | 
60 | CCCC(C)=O | 499 mM (≈ 43000 µg/mL) | 
61 | CCCCOC(=O)CCC |  | solubility (20 °C): 3.47 mM (≈ 500 µg/mL)
62 | Cc1cc(C)c(C(=O)O)c(C)c1 |  | solubility: 4.4 mM (≈ 722 µg/mL)
63 | O=C1NC(=O)c2ccccc21 | 2.45 mM (≈ 360 µg/mL) | 
64 | CCc1cccc2ccccc12 | 0.0685 mM (≈ 10.7 µg/mL) | 
65 | O=[N+]([O-])c1ccc(Oc2ccc(Cl)cc2Cl)cc1 |  | solubility (22 °C): 0.00352 mM (≈ 1 µg/mL)
66 | O=C1NCCN1c1ncc([N+](=O)[O-])s1 | 0.607 mM (≈ 130 µg/mL) | 
67 | c1ccc2c(c1)CCCC2 |  | solubility (28 °C): 0.354 mM (≈ 46.8 µg/mL)
68 | C#CCCCCCC | 0.218 mM (≈ 24 µg/mL) | 
69 | CCC(C)c1cc([N+](=O)[O-])cc([N+](=O)[O-])c1OC(C)=O (stereo not drawn) | 7.79 mM (≈ 2200 µg/mL) | 
70 | CC(C)CCC[C@@H](C)[C@H]1CC[C@H]2[C@@H]3CC=C4C[C@@H](O)CC[C@]4(C)[C@H]3CC[C@]12C |  | solubility (30 °C): 0.000246 mM (≈ 0.095 µg/mL)
71 | CCC1(c2ccccc2)C(=O)NCNC1=O |  | solubility (22 °C): 2.29 mM (≈ 500 µg/mL)
72 | CCC(C)C(C)C (stereo not drawn) | 0.0524 mM (≈ 5.25 µg/mL) | 
73 | CC(=O)O[C@@H](C(=O)O)c1ccccc1 | 58.7 mM (≈ 11400 µg/mL) | 
74 | O=C(O)CCCCCCCCCCCC(=O)O |  | solubility (21 °C): 6.14 mM (≈ 1500 µg/mL)
75 | CCC(C)(C)CC | 0.0591 mM (≈ 5.92 µg/mL) | 
76 | C=Cc1ccccc1 | 2.98 mM (≈ 310 µg/mL) | 
77 | Clc1ccc2c(c1)Oc1cc(Cl)c(Cl)c(Cl)c1O2 |  | solubility (20 °C): 1.34e-06 mM (≈ 0.00043 µg/mL)
78 | CCSC(=O)N(CC(C)C)CC(C)C |  | solubility (22 °C): 0.207 mM (≈ 45 µg/mL)
